“And” between values parts separate entries of the source, which are not always exact repeats. Identical values can stand only once.
Assay: The internally quenched fluorogenic depsipeptide substrate Ac-DED(Edans)-EEAbuΨ[COO]ASK(Dabcyl)-NH2 and a synthetic peptide containing the hydrophobic core residues of the NS4A protein cofactor ([…]; NS4A peptide) were obtained from Anaspec, Inc. (San Jose, Calif.). Other chemicals and biochemicals were of reagent grade or better and were purchased from standard suppliers.Reactions were run at room temperature in buffer consisting of 50 mM HEPES, 40% glycerol, 0.05% Triton X-100, 10 mM DTT, and 10% DMSO. The final assay solutions contained 50 pM NS3 genotype 1 b protease or 200 pM genotype 3a protease, 20 μM NS4A peptide, and 4 μM substrate (genotype 1b) or 2 μM substrate (genotype 3a). Inhibitor concentrations varied from 100 nM to 5 pM in 3-fold dilutions, and no-inhibitor controls were included.Compound dilutions were made in DMSO at 20× final concentration. Reaction mixtures were prepared in 96-well assay plates. A solution of enzyme and NS4A peptide in assay buffer (25 μL volume with both reagents at 4× final concentration) was mixed with 45 μL assay buffer and 5 μL of either inhibitor or DMSO, and pre-incubated at room temperature for 1 hour. The reaction was started by addition of 25 μL substrate solution at 4× final concentration. […]

Compound: C=CCCC[C@@H]1CCCC1(OC(=O)N[C@H](C(=O)N1C[C@H](Oc2nc3cc(OC)ccc3nc2Cl)[C@@H](CC)[C@H]1C(=O)OC(C)(C)C)C(C)(C)C)C(F)(F)F (some centres not stated)
- Ki: 0.59 nM and 0.52 nM

Compound: C=CCC[C@@H]1C[C@H]1OC(=O)N[C@H](C(=O)N1C[C@H](Oc2nc3cc(OC)ccc3nc2C(F)(F)C=C)[C@@H](C)[C@H]1C(=O)OC(C)(C)C)C(C)(C)C
- Ki: 0.05 nM and 0.19 nM
